Melting point data for two compounds are collected here from US8212050B2, “Amidine compounds and herbicides” (Nippon Soda Co., Ltd., priority 2005, dated 2012).

The term melting point denotes the temperature of the solid-liquid transition. As for `C#CCOc1cc(N=C(C=NOC)N2CCCC2)c(F)cc1Cl` [compound 190, 2-(4-chloro-2-fluoro-5-propargyloxyphenylimino)-2-(pyrrolidine-1-yl)acetaldehyde O-methyloxime], the melting point lay in the range of 73 to 75 °C.

For the compound `CCOC(=O)C(C)Oc1cc(N=C(C(N)=O)N2CCCC2)c(Cl)cc1Cl` (centres unmarked) [compound 293, 2-[2,4-dichloro-5-(1-ethoxycarbonylethoxy)phenylimino]-2-(pyrrolidine-1-yl)acetamide], the melting point fell in the range of 160 to 163 °C.
